Results taken from US11773420B2, “Process for enzymatic hydrolysis of lignocellulosic material and fermentation of sugars” (VERSALIS S.P.A., priority 2014, dated 2023).

System: cellulase enzyme cocktail TEC210
Assay: Effect of gluconic acid on enzymatic hydrolysis of pretreated corn stover by TEC210
Assay type: biochemical, Rasamsonia
Conditions: for Glucose release (in %): 6% w/w dm, pH 4.5, 62° C., 50 hours, 5 mg TEC210/g dm
Method: Twenty grams of pretreated corn stover were incubated in a 50 ml Greiner test tube for 50 hours at a dry matter level of 6% w/w, pH 4.5 at 62° C. in the presence of 5 mg of the cellulase enzyme cocktail TEC210 per gram of dry matter and in the presence of 0, 2, 4, 6, or 8 g/l gluconic acid to determine the inhibiting effect of gluconic acid on the hydrolysis of glucan in lignocellulosic feedstock. The experiment is performed at maximum oxygen saturation.
Samples were taken after 50 hours of incubation and the samples were centrifuged for further analysis in an Eppendorf centrifuge type 5810 for 8 minutes at 4000 rpm. The glucose concentration was measured in the supernatant of each sample by means of HPLC using a Bio-Rad HPX87H column. The glucose release as presented in Table 3 is a direct measure for the enzymatic hydrolysis (glucan hydrolysis). A gluconic acid level of 2 g/l in the supernatant corresponds with 89 g/kg glucan in the lignocellulosic material. This can be calculated as described above with a density of 1.02 kg/I, a pellet factor of 2% and a glucan content of 21.6 g glucan/kg hydrolysate.

Compound: O=C(O)[C@H](O)[C@@H](O)[C@H](O)[C@H](O)CO [Gluconic acid, gluconic acid]
- Glucose release (in %) (gluconic acid added 2 g/l (89 g/kg glucan)): 90%
- Glucose release (in %) (gluconic acid added 4 g/l (178 g/kg glucan)): 82%
- Glucose release (in %) (gluconic acid added 6 g/l (267 g/kg glucan)): 79%
- Glucose release (in %) (gluconic acid added 8 g/l (356 g/kg glucan)): 77%
- effect on glucan hydrolysis (higher concentrations of gluconic acid): negative effect on glucan hydrolysis
